The values below come from US20260157984A1, “CERAMIDE COMPOSITION” (GENUINE R&D CO., LTD., priority 2021, published 2026).

The assay concerns HaCaT cells. In words: Measurement of mitochondrial activity by IN Cell Analyzer 2200 in HaCaT cells. Format: cell-based, human. The note with it: HaCaT cells treated with ceramides 48 hours, 5 μM, FIG. 1. As for the experimental part: A human epidermal keratinocyte cell line, i.e., HaCaT cells, was used as a human skin cell model. The cells were subcultured in a cell culture dish (Greiner Bio-One Co., Ltd., Tokyo, Japan) at 37° C. in the presence of 5% CO2 by using DMEM medium (Dulbecco's Modified Eagle Medium, Nissui, Tokyo, Japan) containing 10% inactivated fetal bovine serum (FBS, Life Technologies Corporation, CA, USA). […]
HaCaT cells were seeded in a 96-well plate at a density of 6.0×10^4 cells/mL and precultured for 24 hours. […] Thereafter, the diluted Hoechst […] solution was removed from the 96-well plate, […] of PBS was added, and the fluorescence was detected using an IN Cell Analyzer 2200 (GE Healthcare). By measuring the amounts of fluorescence of MitoTracker Red, MitoTracker Green, and Hoechst 33342, the mitochondrial activity, number, and area in the cells were examined. The images were analyzed using IN Cell Investigator High-content image analysis software (GE Healthcare).
The mitochondrial number and area (MitoTracker Green), as well as the mitochondrial membrane potential activity (MitoTracker Red), per cell were measured using an IN Cell Analyzer 2200 in HaCaT cells treated with ceramides for 48 hours.

Take `CCCCCCCCCCCCCCCCCC(=O)N[C@@H](CO)[C@H](O)CCCCCCCCCCCCCCC` [synthetic ceramide, ceramide NG]: the “mitochondrial number per cell (MitoTracker Green)” value is on record as “significantly increased”.
